Like-named read-outs stand apart in the source and are kept apart here.
Assays:
[1] = Pharmacokinetic study for mouse (single intravenous or gavage administration); assay type: in vivo, mice; conditions: for clearance / half-life / AUC(0-t) / Vd / Cmax / Tmax: plasma; for AUC(0-t): read-out: AUC0-24 h; for Vd: read-out: Vdss
Protocol: This experiment aims to evaluate the pharmacokinetic behavior of the compounds after a single intravenous or gavage administration in mice. As for the intravenous administration, the compounds were formulated into 0.5 mg/mL clear solutions, vehicle: 5% DMSO/5% 12-hydroxy stearate (solutol)/90% water; as for the gavage administration, the compounds were formulated into 2 mg/mL suspensions, vehicle: 0.5% sodium carboxymethylcellulose/0.2% Tween 80/99.3% water.
The concentrations of the compounds in plasma were determined by high-performance liquid chromatography-tandem mass spectrometry (LC-MS/MS). The retention time, chromatogram acquisition and integration of the chromatograms of the compounds and the internal standard (diclofenac) were processed using the software Analyst (Applied Biosystems), and data statistics were processed using the software Watson LIMS (Thermo Fisher Scientific) or Analyst (Applied Biosystems). The concentration unit of the analyte in the sample is ng/mL, 3 significant digits were retained, and all the values represented by percentages (e.g., % deviation and % coefficient of variation, etc.) have one decimal place. Each calibration curve contains at least 6 concentration levels. The calibration standard samples were formulated using stock solutions from different sources from the quality control samples. If the deviation between the calculated concentration of a calibration standard sample and the indicated value exceeds ±15.0% (the lower limit of quantitation exceeds ±20.0%), such standard sample should be excluded in regression analysis. The excluded calibration standard samples should be less than 25%, and each calibration curve contains at least 6 calibration standard samples that meet the acceptable standard. If the calibration standard samples at the lower and upper limits of quantification need to be excluded, the upper and lower limits of quantification of this batch of analytes will be increased and decreased accordingly.
Plasma concentrations were processed using a non-compartmental model of the WinNonlin™ Version 6.3 (Pharsight, Mountain View, Calif.) pharmacokinetic software, and pharmacokinetic parameters were calculated using the linear logarithmic trapezoidal method. The pharmacokinetic parameters to be calculated include, but are not limited to (if the data is not allowed), T1/2, Vdss, CL, AUC0-24h of the intravenous group; Cmax, Tmax, AUC0-24h and bioavailability (F %) of the oral gavage group.

[2] = tested on: HBV DNA in HepG2.2.15 cells; experiment: In vitro anti-HBV activity assay (HBV DNA in HepG2.2.15 supernatant, qPCR); assay type: cell-based; conditions: Hepatitis B virus, HepG2.2.15, 192 h; inhibition of HBV DNA in supernatant, 8 days culture
Protocol: 1) 100 μL of HepG2.2.15 cells were seeded at a number of 1.2×10^5 cells per well into a 96-well cell culture plate, and then the cells were cultured in a 37° C. incubator with 5% carbon dioxide (CO2) overnight. On day 2, the compounds to be tested were diluted with DMSO in 3-fold gradient to eight concentrations in total. Then the compounds were diluted 100-fold with culture medium, and 100 μL of the diluted compounds were taken and added to the cell-containing plate in a final volume of 200 μL, and the final concentration of DMSO was 0.5%, and two duplicate wells were used. The cells were cultured in a 37° C. incubator with 5% CO2 for 3 days. On day 5, the solutions in the cell culture plate were replaced with fresh culture medium containing the same concentrations of compounds. When culture was performed for 8 days, cell culture plate supernatant was collected for the extraction of HBV DNA.
2) Detection of HBV DNA by real-time quantitative PCR: the total DNA in the supernatant was extracted with QIAamp 96 DNA Blood Kit, and the content of HBV DNA was detected by quantitative PCR using HBV specific primers and probes. 20 μL PCR pre-mixed solution and 5 μL HBV DNA sample or HBV plasmid standard sample were added to a quantitative PCR plate for reaction. The HBV plasmid standard sample was diluted in 10-fold gradient to seven concentrations from 10^7 to 10 copies/μL. The quantitative PCR reaction procedure was as follows: pre-denaturation at 95° C. for 10 minutes; denaturation at 95° C. for 15 seconds, reaction at 60° C. for 1 minute, and this cycle was repeated 40 times. The inhibition rate of each well against HBV DNA was calculated according to the following equation, and the inhibition rate data of the compounds were subjected to a non-linear fitting analysis using GraphPad Prism software to obtain EC50 values of the compounds. HBV DNA inhibition rate %=(1−copy number of HBV DNA of the sample/copy number of HBV DNA of DMSO control)*100% The assay results are shown in Table 1 below.

[3] = tested on: HBV; experiment: In vivo activity assay of HBV DNA in mouse plasmid model of tail vein high-pressure injection (Example 6); design: species or system female BABL/c mice; conditions: 30 mg/Kg, gavage, twice a day
Protocol: (§1) The purpose of this study was to test the inhibitory effect of the compound (Example 6) against HBV in mice through a mouse model of high-pressure tail vein injection. In this experiment, female BABL/c mice were used, and the mice were 6-7 weeks old. The HBV plasmid DNA was extracted by using pAAV2-HBV 1.3 mer with Qiagen EndoFree Plasmid Giga kit at a concentration of 1000 ng/μL. The resulting solution was diluted with normal saline before use and stored at 4° C. until use.
100 μL of whole blood was taken from each mouse approximately 4 hours after the first administration On days 1, 3, and 5, and the whole blood was collected into a tube containing sodium heparin, centrifuged at 4° C. at 7000 rpm for 10 minutes, and the supernatant was taken to obtain plasma. The plasma was stored in a refrigerator at −80° C. and transported to an analytical laboratory for testing under dry ice freezing condition.
1) DNA in plasma was extracted, and the experimental procedure was carried out with reference to the instruction for QIAamp 96 DNA Blood Kit.
A qPCR reaction mixture was formulated (see Table 6). The qPCR reaction mixture, sample and standard sample were added to a 96-well reaction plate. The standard sample was plasmid DNA containing the full-length sequence of type D HBV. The standard sample was diluted from 10^7 copies/μL in 10-fold gradient to successively obtain 10^6˜10^1 copies/μL of DNA standard samples. PCR reaction: 95° C., 10 min; 95° C., 15 seconds; 60° C., 1 minute; 40 cycles.
Liver tissue was taken and homogenized with a tissue grinder. After centrifugation, the supernatant was transferred to a new centrifuge tube and digested with proteinase K digestion solution for 3 hours. The resulting mixture was cooled, and then RNAse A was added thereto to incubate for 30 minutes. The RNase A-treated mixture was extracted twice with an equal volume of phenol chloroform isoamyl alcohol to remove residual protein. The supernatant was transferred to a new centrifuge tube, and isopropanol was added thereto to precipitate the DNA. The DNA precipitation was washed twice with 70% ethanol. The precipitation was then air-dried and TE (10 mM Tris-HCl, pH 8.0, 1 mM EDTA) was added thereto to dissolve the DNA.
The DNA concentrations were measured with Nanodrop and adjusted to 10 ng/μL for all the samples. 5 μL samples were added to the quantitative PCR reaction system for quantitative PCR.
HBV DNA content=DNA content detected by HBV primer-DNA content detected by pAAV2 primer.

[4] = tested on: HBV; experiment: In vivo activity assay of HBV DNA in mouse plasmid model of tail vein high-pressure injection (Example 23); design: species or system female BABL/c mice; conditions: 60 mg/Kg, gavage
Protocol: as §1, with “23)” for “6)”

## C[C@H]1Cc2noc(-c3ccc(F)cn3)c2CN1C(=O)Nc1cc(F)c(F)c(F)c1 [Example 1]
[1]; oral gavage, 10 mg/Kg
  F: 76.1%
  Cmax: 4.26 µM
  Tmax: 1 h
  AUC(0-t): 47.2 µM·h
[1]; intravenous injection, 1 mg/Kg
  clearance: 5.8 mL/min/kg
  half-life: 5.62 h
  AUC(0-t): 6.71 µM·h
  Vd: 2.77 L/kg
[2]
  EC50: 5.3 nM

## C[C@H]1Cc2noc(-c3ccccc3)c2CN1C(=O)Nc1cc(F)c(F)c(F)c1 [Example 2]
[2]
  EC50: 29.3 nM

## C[C@H]1Cc2noc(-c3ccccc3F)c2CN1C(=O)Nc1cc(F)c(F)c(F)c1 [Example 3]
[2]
  EC50: 9 nM

## C[C@H]1Cc2noc(-c3ccc(F)cc3)c2CN1C(=O)Nc1cc(F)c(F)c(F)c1 [Example 5]
[2]
  EC50: 24.7 nM

## C[C@H]1Cc2noc(-c3ccc(F)cc3F)c2CN1C(=O)Nc1cc(F)c(F)c(F)c1 [Example 6]
[1]; oral gavage, 10 mg/Kg
  F: 58.4%
  Cmax: 4.94 µM
  Tmax: 0.5 h
  AUC(0-t): 66.7 µM·h
[1]; intravenous injection, 1 mg/Kg
  clearance: 2.84 mL/min/kg
  half-life: 9.31 h
  AUC(0-t): 11.4 µM·h
  Vd: 2.33 L/kg
[2]
  EC50: 4.9 nM
[3]; liver tissue after 7 days of administration, solvent control 5.67
  Log HBV DNA mean value: 3.09 copy number/μL
[3]; plasma, Day 1, solvent control 2.22, Log(LLOQ) = 1.60
  Log HBV DNA mean value: 2.23 copy number/μL
[3]; plasma, Day 3, solvent control 4.51, Log(LLOQ) = 1.60
  Log HBV DNA mean value: 1.74 copy number/μL
[3]; plasma, Day 5, solvent control 5.01, Log(LLOQ) = 1.60
  Log HBV DNA mean value: 2.02 copy number/μL
[3]; plasma, Day 7, solvent control 3.30, Log(LLOQ) = 1.60
  Log HBV DNA mean value: 1.85 copy number/μL

## COc1cccc(-c2onc3c2CN(C(=O)Nc2cc(F)c(F)c(F)c2)[C@@H](C)C3)c1 [Example 8]
[2]
  EC50: 37.3 nM

## COc1ccc(-c2onc3c2CN(C(=O)Nc2cc(F)c(F)c(F)c2)[C@@H](C)C3)cc1 [Example 9]
[2]
  EC50: 10.5 nM

## C[C@H]1Cc2noc(-c3ccc(Cl)cc3)c2CN1C(=O)Nc1cc(F)c(F)c(F)c1 [Example 12]
[2]
  EC50: 68.8 nM

## C[C@H]1Cc2noc(-c3cnccn3)c2CN1C(=O)Nc1cc(F)c(F)c(F)c1 [Example 13]
[2]
  EC50: 58.9 nM

## C[C@H]1Cc2noc(-c3cscn3)c2CN1C(=O)Nc1cc(F)c(F)c(F)c1 [Example 15]
[2]
  EC50: 6.7 nM

## C[C@H]1Cc2noc(-c3nccs3)c2CN1C(=O)Nc1cc(F)c(F)c(F)c1 [Example 16]
[2]
  EC50: 24.6 nM

## C[C@H]1Cc2noc(-c3ccsn3)c2CN1C(=O)Nc1cc(F)c(F)c(F)c1 [Example 18]
[2]
  EC50: 12.2 nM

## C[C@H]1Cc2noc(-c3ccc(F)cc3F)c2CN1C(=O)Nc1ccc(F)c(C#N)c1 [Example 19]
[2]
  EC50: 10.4 nM

## C[C@H]1Cc2noc(-c3ccc(F)cc3F)c2CN1C(=O)Nc1ccc(F)c(Cl)c1 [Example 20]
[2]
  EC50: 8.66 nM

## Cc1cc(NC(=O)N2Cc3c(noc3-c3ccc(F)cc3F)C[C@@H]2C)ccc1F [Example 21]
[2]
  EC50: 5.58 nM

## C[C@H]1Cc2noc(-c3ccc(F)cc3F)c2CN1C(=O)Nc1ccnc(Cl)c1 [Example 22]
[2]
  EC50: 35.2 nM

## C[C@H]1Cc2noc(-c3ncccn3)c2CN1C(=O)Nc1ccc(F)c(C#N)c1 [Example 23]
[4]; liver tissue after 7 days of administration, BID, solvent control 6.01
  Log HBV DNA mean value: 4.50 copy number/μL
[4]; liver tissue after 7 days of administration, QD, solvent control 6.01
  Log HBV DNA mean value: 5.18 copy number/μL
[4]; plasma, Day 1, BID, solvent control 2.03
  Log HBV DNA mean value: 1.94 copy number/μL
[4]; plasma, Day 1, QD, solvent control 2.03
  Log HBV DNA mean value: 2.10 copy number/μL
[4]; plasma, Day 3, BID, solvent control 4.47
  Log HBV DNA mean value: 3.02 copy number/μL
[4]; plasma, Day 3, QD, solvent control 4.47
  Log HBV DNA mean value: 3.15 copy number/μL
[4]; plasma, Day 5, BID, solvent control 4.76
  Log HBV DNA mean value: 2.94 copy number/μL
[4]; plasma, Day 5, QD, solvent control 4.76
  Log HBV DNA mean value: 3.92 copy number/μL
[4]; plasma, Day 7, BID, solvent control 3.53
  Log HBV DNA mean value: 2.14 copy number/μL
[4]; plasma, Day 7, QD, solvent control 3.53
  Log HBV DNA mean value: 3.19 copy number/μL
[1]; oral gavage, 3 mg/Kg
  F: 55.3%
  Cmax: 3.4 µM
  Tmax: 0.5 h
  AUC(0-t): 16.7 µM·h
[1]; intravenous injection, 1 mg/Kg
  clearance: 4.36 mL/min/kg
  half-life: 3.03 h
  AUC(0-t): 10 µM·h
  Vd: 1.09 L/kg
[2]
  EC50: 25.4 nM

## C[C@H]1Cc2noc(-c3ncccn3)c2CN1C(=O)Nc1ccc(F)c(Cl)c1 [Example 24]
[2]
  EC50: 15.6 nM

## C[C@H]1Cc2noc(-c3ncccn3)c2CN1C(=O)Nc1cc(F)c(F)c(F)c1 [Example 25]
[2]
  EC50: 14.9 nM

## C[C@H]1Cc2noc(-c3ncccn3)c2CN1C(=O)Nc1ccc(F)c(F)c1 [Example 26]
[2]
  EC50: 19.1 nM

Reference: patent publication US11572372B2, “Anti-HBVtetrahydroisoxazolo[4,3-c]pyridine compounds” (CHIA TAI TIANQING PHARMACEUTICAL GROUP CO., LTD., priority 2017, dated 2023)
